A short description of this assay: Antioxidant activity assessed as second order rate constant for galvinoxyl radical scavenging activity by UV-vis spectrophotometry. It is filed as functional.
In the case of `Oc1cc(O)c2c(c1)O[C@H](c1ccc(O)c(O)c1)[C@@H](O)[C@@H]2c1c(O)cc(O)c2c1O[C@H](c1ccc(O)c(O)c1)[C@@H](O)C2`, the K came to 1 ×10² /M/s.

As to `CC1(C)O[C@H]2Cc3c(O)cc(O)c([C@@H]4c5c(O)cc(O)cc5O[C@H](c5ccc(O)c(O)c5)[C@H]4O)c3O[C@@H]2c2cc(O)c(O)cc21`, the K turned out to be 1.89 ×10² /M/s.

For `Oc1cc(O)c2c(c1)O[C@H](c1ccc(O)c(O)c1)[C@@H](O)C2`, the K turned out to be 26 M⁻¹ s⁻¹.

The record behind these values is ChEMBL document CHEMBL3994620, “Synthesis and antioxidant activity of a procyanidin B3 analogue” (Bioorg Med Chem Lett, 2017).
